Like-named read-outs stand apart in the source and are kept apart here.
Assays:
Format in all cases: binding
[1] = biological target: T1, HeLa cell extract proteins (Homo sapiens, UniProt P16219)
T1 construct: endogenous in cells; host or cells: HeLa cell extract
T1 sequence (P16219 25-412): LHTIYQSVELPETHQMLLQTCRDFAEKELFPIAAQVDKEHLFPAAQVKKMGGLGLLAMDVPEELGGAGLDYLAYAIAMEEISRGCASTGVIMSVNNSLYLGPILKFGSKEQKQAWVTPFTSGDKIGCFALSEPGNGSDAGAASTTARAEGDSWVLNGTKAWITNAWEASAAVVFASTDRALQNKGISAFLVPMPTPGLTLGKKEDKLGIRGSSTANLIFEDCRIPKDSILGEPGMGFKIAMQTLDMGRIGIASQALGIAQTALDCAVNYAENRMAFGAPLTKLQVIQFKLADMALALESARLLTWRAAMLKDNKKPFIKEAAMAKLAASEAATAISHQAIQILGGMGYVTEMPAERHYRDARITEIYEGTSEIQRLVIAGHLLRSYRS

[2] = biological target: T2, HeLa cell extract proteins (Homo sapiens, UniProt P49327)
T2 construct: endogenous in cells; host or cells: HeLa cell extract
T2 sequence (P49327 whole entry): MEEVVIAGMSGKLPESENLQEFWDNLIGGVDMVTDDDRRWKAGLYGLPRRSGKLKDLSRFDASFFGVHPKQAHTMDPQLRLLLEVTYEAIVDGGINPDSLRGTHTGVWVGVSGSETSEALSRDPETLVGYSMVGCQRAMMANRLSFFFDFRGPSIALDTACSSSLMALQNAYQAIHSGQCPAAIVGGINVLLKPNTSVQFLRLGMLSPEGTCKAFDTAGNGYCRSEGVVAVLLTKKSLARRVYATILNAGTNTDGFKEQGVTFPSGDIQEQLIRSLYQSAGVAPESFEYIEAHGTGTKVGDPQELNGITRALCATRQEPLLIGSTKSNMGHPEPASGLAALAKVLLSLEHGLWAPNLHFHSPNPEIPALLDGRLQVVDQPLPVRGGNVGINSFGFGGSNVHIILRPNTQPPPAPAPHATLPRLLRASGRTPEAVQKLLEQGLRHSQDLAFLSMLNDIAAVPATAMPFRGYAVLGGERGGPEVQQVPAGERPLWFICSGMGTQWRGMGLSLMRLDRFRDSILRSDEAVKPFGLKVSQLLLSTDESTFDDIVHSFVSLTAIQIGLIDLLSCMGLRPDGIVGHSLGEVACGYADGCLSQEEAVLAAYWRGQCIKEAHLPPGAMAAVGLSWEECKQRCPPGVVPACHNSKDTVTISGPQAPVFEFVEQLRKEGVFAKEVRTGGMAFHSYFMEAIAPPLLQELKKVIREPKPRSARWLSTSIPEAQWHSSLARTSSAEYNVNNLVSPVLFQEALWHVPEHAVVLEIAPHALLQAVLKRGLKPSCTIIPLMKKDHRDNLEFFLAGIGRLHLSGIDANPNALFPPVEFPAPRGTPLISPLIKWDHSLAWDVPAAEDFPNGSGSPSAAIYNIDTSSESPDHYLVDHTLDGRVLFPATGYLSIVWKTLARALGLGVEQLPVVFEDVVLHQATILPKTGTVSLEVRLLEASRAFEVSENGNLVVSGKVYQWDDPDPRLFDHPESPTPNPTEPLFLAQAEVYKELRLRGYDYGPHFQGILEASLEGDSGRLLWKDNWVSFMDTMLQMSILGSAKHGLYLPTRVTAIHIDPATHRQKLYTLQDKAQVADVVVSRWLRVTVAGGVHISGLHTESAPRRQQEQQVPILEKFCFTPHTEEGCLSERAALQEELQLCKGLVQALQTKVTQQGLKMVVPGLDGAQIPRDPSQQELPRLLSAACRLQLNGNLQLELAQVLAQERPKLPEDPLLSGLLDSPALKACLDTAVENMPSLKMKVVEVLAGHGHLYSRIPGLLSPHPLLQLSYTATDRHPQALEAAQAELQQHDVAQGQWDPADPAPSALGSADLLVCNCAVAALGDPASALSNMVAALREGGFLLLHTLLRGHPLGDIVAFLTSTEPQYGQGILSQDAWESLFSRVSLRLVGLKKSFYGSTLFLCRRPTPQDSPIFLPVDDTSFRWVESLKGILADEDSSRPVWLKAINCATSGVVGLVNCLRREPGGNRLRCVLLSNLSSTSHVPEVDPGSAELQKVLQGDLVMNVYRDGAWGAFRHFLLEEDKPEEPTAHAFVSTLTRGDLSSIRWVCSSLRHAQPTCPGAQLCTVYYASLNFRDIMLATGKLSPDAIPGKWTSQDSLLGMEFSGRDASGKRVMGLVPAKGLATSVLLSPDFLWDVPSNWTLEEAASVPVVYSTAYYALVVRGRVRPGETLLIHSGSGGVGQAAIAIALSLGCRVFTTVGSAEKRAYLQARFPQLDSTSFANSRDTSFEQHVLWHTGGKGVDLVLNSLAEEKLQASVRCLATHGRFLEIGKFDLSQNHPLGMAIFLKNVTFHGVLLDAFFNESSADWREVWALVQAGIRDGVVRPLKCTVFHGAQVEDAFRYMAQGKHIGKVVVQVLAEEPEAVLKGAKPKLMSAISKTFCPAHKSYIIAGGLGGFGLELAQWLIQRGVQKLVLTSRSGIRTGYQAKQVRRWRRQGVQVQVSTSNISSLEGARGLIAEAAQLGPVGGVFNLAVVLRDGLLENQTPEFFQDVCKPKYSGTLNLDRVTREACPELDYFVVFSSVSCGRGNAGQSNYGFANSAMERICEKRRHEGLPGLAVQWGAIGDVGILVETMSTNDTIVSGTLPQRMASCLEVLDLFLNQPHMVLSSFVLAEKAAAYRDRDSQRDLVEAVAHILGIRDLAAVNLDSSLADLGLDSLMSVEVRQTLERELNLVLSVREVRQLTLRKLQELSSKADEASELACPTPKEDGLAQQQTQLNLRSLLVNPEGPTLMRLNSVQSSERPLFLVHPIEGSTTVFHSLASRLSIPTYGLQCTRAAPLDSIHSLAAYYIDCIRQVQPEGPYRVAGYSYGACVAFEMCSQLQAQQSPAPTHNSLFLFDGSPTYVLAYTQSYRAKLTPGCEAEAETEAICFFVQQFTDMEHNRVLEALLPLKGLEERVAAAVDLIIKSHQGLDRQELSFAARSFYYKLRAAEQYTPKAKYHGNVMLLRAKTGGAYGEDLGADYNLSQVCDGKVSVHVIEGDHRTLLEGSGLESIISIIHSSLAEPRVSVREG

[3] = biological target: T3, HeLa cell extract proteins (Homo sapiens, UniProt P30876)
T3 construct: endogenous in cells; host or cells: HeLa cell extract

[4] = biological target: T4, HeLa cell extract proteins (Homo sapiens, UniProt O95382)
T4 construct: endogenous in cells; host or cells: HeLa cell extract
T4 sequence (O95382 1-1288): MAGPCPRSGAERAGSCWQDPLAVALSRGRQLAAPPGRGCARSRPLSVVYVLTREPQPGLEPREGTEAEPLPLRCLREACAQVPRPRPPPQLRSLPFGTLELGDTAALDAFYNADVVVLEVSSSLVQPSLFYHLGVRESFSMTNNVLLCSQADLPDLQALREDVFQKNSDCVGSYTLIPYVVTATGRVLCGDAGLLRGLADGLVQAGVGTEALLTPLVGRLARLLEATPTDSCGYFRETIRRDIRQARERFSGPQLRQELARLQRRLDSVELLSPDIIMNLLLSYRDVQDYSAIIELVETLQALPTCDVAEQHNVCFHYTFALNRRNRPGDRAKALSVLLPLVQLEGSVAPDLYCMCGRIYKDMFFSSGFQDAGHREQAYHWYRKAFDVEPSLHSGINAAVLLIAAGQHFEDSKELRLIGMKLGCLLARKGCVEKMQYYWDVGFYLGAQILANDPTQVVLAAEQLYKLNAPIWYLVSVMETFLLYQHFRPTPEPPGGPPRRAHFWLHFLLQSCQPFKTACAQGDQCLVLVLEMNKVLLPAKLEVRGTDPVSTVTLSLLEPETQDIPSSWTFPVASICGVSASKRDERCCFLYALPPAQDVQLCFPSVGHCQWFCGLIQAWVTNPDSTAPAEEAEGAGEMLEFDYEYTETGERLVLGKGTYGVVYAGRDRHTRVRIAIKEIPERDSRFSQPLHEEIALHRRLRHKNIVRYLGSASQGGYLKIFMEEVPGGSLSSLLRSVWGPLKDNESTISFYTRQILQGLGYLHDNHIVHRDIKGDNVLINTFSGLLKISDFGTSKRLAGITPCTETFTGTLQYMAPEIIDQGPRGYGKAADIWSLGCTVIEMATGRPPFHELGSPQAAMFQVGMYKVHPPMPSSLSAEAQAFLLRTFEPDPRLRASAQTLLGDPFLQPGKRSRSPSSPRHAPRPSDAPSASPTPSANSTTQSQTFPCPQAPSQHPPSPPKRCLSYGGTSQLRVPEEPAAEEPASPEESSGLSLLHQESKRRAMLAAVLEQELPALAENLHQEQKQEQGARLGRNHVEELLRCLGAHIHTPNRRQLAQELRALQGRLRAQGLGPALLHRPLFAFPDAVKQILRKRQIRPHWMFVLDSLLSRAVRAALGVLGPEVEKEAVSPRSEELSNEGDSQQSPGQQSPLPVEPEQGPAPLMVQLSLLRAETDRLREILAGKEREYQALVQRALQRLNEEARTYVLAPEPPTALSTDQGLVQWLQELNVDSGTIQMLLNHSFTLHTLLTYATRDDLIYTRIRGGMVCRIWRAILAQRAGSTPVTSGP

[5] = biological target: T5, HeLa cell extract proteins (Homo sapiens, UniProt Q9UL46)
T5 construct: endogenous in cells; host or cells: HeLa cell extract
T5 sequence (Q9UL46 whole entry): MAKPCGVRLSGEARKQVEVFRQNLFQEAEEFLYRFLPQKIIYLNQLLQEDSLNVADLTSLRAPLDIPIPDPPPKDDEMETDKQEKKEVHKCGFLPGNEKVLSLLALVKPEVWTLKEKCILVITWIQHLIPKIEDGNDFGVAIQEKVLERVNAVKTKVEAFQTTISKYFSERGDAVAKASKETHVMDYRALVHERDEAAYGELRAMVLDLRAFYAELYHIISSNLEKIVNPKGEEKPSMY

[6] = HeLa, protein ACADS (SHORT-CHAIN SPECIFIC ACYL-COA DEHYDROGENASE, MIT[…])

| SMILES | fold changes relative to vehicle control ([1]; protein ACADS, HeLa) | fold changes relative to vehicle control ([2]; protein FASN, HeLa) | fold changes relative to vehicle control ([3]; HeLa, protein POLR2B) | fold changes relative to vehicle control ([4]; HeLa, protein MAP3K6) | fold changes relative to vehicle control ([5]; protein PSME2, HeLa) | fold changes relative to vehicle control [1, 6] | fold changes relative to vehicle control ([2]; HeLa, captured protein FASN) | fold changes relative to vehicle control ([3]; protein POLR2B, HeLa) | fold changes relative to vehicle control ([5]; HeLa, protein PSME2) | fold changes relative to vehicle control [1] | fold changes relative to vehicle control [2] | fold changes relative to vehicle control [3] | fold changes relative to vehicle control [4] | fold changes relative to vehicle control [5] |
| --- | --- | --- | --- | --- | --- | --- | --- | --- | --- | --- | --- | --- | --- | --- |
| Nc1nc2cccc(-c3ccccc3)c2n1Cc1ccc(Cl)c(Cl)c1 [compound 3] | 0.99 | 1.17 | 0.98 | 0.97 | 0.93 | – | – | – | – | – | – | – | – | – |
| CCCCCCOc1ccc(Cc2cnc(N)nc2N)cc1 [compound 1] | 0.91 | 1.07 | 0.94 | 0.99 | 1.01 | – | – | – | – | – | – | – | – | – |
| NCCCNc1ccc(C(=O)NC(CCC(=O)O)C(=O)O)cc1 (centres unmarked) [compound 7] | – | – | – | 1.16 | – | 1.04 | 1.2 | 0.91 | 0.89 | – | – | – | – | – |
| CCCCCCOc1cccc(Cc2cnc(N)nc2N)c1 [compound 2] | 1.1 | 1.25 | 1.42 | 0.97 | 1.38 | – | – | – | – | – | – | – | – | – |
| NCCOCCOCC(=O)Nc1nc2ncc(CNc3ccc(C(=O)NC(CCC(=O)O)C(=O)O)cc3)nc2c(=O)[nH]1 (centres unmarked) [compound 6] | – | – | – | 1.19 | – | 1.07 | 1.2 | 1.07 | 0.95 | – | – | – | – | – |
| Nc1nc2[nH]cc(CCc3ccc(C(=O)N[C@@H](CCC(=O)O)C(=O)O)cc3)c2c(=O)[nH]1 [PTX, pemetrexed] | – | – | – | – | – | – | – | – | – | 1.09 | 1.09 | 0.89 | 1.16 | 0.9 |
| Nc1nc2c(c(=O)[nH]1)N(C=O)C(CNc1ccc(C(=O)N[C@@H](CCC(=O)O)C(=O)O)cc1)CN2 (some centres unmarked) [LEU, leucovorin] | – | – | – | 0.99 | – | 1.06 | 1.13 | 0.8 | 0.94 | – | – | – | – | – |
